Data reported in a compilation of properties of binary mixtures (doi:10.1016/j.fluid.2023.113736).

Test: xn = mol fraction of the nth substance listed
Settings: 100 kPa, x1 = 0.5

C[N+](CCO)(CCO)CCOCCO.[Cl-] + NC(N)=O
Settings | viscosity [mPa·s]
283.15 K | 45000
288.15 K | 23200
293.15 K | 12700
298.15 K | 7350
303.15 K | 4396
308.15 K | 2744
313.15 K | 1766
318.15 K | 1172
323.15 K | 794
333.15 K | 400
338.15 K | 295
